pIC50: −log10 of the molar value.
Assays:
[1] = target: Prostaglandin G/H synthase 2 (Ovis aries) (UniProt P79208); assay: Inhibition of Ovis aries (sheep) COX-2 by Chemoiluminescence assay
[2] = target: Prostaglandin G/H synthase 1 (Ovis aries) (UniProt P05979); assay: Inhibition of Ovis aries (sheep) COX-1 by Chemoiluminescence assay
Ovis aries = species: Ovis aries; assay: Selectivity index, ratio of IC50 for Ovis aries (sheep) COX-1 to IC50 for Ovis aries (sheep) COX-2

Prostaglandin G/H synthase 2 (Ovis aries), sequence (P79208 whole entry, looked up): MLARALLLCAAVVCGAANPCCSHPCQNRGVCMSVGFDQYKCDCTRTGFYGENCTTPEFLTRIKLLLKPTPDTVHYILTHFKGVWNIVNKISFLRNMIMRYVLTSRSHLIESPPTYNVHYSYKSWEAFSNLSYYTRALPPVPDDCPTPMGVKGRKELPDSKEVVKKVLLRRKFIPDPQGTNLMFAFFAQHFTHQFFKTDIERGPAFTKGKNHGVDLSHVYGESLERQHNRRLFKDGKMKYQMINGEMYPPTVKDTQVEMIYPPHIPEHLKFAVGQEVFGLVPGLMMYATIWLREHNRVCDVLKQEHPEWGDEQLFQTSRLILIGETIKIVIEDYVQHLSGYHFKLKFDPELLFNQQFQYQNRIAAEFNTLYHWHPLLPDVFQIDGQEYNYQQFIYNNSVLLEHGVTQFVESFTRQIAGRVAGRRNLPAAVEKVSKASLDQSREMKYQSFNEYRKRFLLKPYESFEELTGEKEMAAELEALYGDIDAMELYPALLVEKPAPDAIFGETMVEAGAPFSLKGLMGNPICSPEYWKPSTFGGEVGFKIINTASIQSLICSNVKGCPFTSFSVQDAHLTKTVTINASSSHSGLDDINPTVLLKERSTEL

pIC50 [1]	pIC50 [2]	Ratio IC50 (Ovis aries)	Compound
6.57	4.07	318	CC1OC(c2ccc(S(C)(=O)=O)cc2)N(Cc2ccccc2)C1=O (racemic)
6.49	< 4.00	> 312	CS(=O)(=O)c1ccc(C2SCC(=O)N2Cc2ccccc2)cc1 (configuration not stated)
6.47	4.12	222	CC1SC(c2ccc(S(C)(=O)=O)cc2)N(Cc2ccccc2)C1=O (racemic)
6.68	< 4.00	> 476	CS(=O)(=O)c1ccc(C2OCC(=O)N2Cc2ccccc2)cc1 (configuration not stated)

— ChEMBL document CHEMBL3045197, “Design and synthesis of new 2-aryl, 3-benzyl-(1,3-oxazolidine or 1,3-thiazolidine)-4-ones as selective cyclooxygenase (COX-2) inhibitors” (Med Chem Res, 2010)
